Data reported in ChEMBL document CHEMBL3272329, “Stereochemical analogs of a muscarinic, ganglionic stimulant. 2. Cis and trans olefinic, epoxide, and cyclopropane analogs related to 4-[N-(3-chlorophenyl)carbamoyloxy]-2-butynyltrimethylammonium chloride (McN-A-343)” (1976).
Calls of active or inactive are those of the source. No cut-off for these calls is given here.

Assays:
Felis catus [1] = assay: Induction of ganglion stimulating activity in cat assessed as increase in blood pressure at 1 to 300 ug/kg, iv by […]; type: functional
Felis catus [2] = assay: Induction of ganglion stimulating activity in iv dosed cat assessed as slight increase in blood pressure administered at 300 ug/kg, iv by […]; type: functional, organism-based
Oryctolagus cuniculus [3] = organism: Oryctolagus cuniculus; assay: Agonist activity at muscarinic receptor in rabbit ileum assessed as […]; type: tissue-based
Oryctolagus cuniculus [4] = organism: Oryctolagus cuniculus; assay: Agonist activity at muscarinic receptor in rabbit ileum assessed as […] relative to acetylcholine; type: tissue-based

Row | Compound | Activity (Oryctolagus cuniculus [3]) | Activity (Felis catus [1]) | other results
1 | C[N+](C)(C)C/C=C\COC(=O)Nc1ccc(Cl)cc1.[I-] | inactive |  | fold change (FC) (Felis catus [1]): 3; Activity (Felis catus [2]): Active
2 | C[N+](C)(C)C/C=C/COC(=O)Nc1ccc(Cl)cc1.[I-] |  |  | fold change (FC) (Felis catus [1]): 3; Activity (Oryctolagus cuniculus [4]): 1%
3 | C[N+](C)(C)CC#CCOC(=O)Nc1cccc(Cl)c1 |  | Active | 
4 | CN(C)C[C@@H]1C[C@@H]1CO (relative stereo) | inactive |  | 
5 | C[N+](C)(C)C[C@H]1O[C@H]1COC(=O)Nc1ccc(Cl)cc1 (relative stereo) | inactive | Active | 
6 | C[N+](C)(C)C/C=C/COC(=O)Nc1cccc(Cl)c1 |  |  | Activity (Felis catus [2]): Active
7 | C[N+](C)(C)C[C@@H]1C[C@H]1COC(=O)Nc1ccc(Cl)cc1 |  | inactive | 
8 | C[N+](C)(C)C[C@H]1C[C@H]1COC(=O)Nc1ccc(Cl)cc1 (relative stereo) |  | inactive | 
9 | CN(C)C[C@H]1C[C@@H]1CO (relative stereo) | inactive |  | 
10 | C[N+](C)(C)C[C@H]1O[C@@H]1COC(=O)Nc1ccc(Cl)cc1 (relative stereo) | inactive | Active | 
11 | C[N+](C)(C)CC#CCOC(=O)Nc1ccc(Cl)cc1 |  | Active | 
